Measured values taken from article PMC6941823, “A dispensable paralog of succinate dehydrogenase subunit C mediates standing resistance towards a subclass of SDHI fungicides in Zymoseptoria tritici” (PLoS Pathogens, 2019).
Like-named read-outs stand apart in the source and are kept apart here.

Key:
[1] = target: WT-SQR (SDHC), IPO323 mitochondria (Zymoseptoria tritici, UniProt F9X9V6+F9XH52+O42772); assay: Succinate-quinone (SQR) SDHI sensitivity assay on purified mitochondria, IPO323; type: biochemical; conditions: mitochondria of IPO323; mean of three determinations ± SD; read-out: Succinate-quinone IC50, IPO323 (SDHC)
Description: (§1) Succinate-ubiquinone oxidoreductase (SQR) inhibition assays were performed on mitochondrial extracts from a panel of strains that were (i) either carrying a unique C-subunit encoding gene (ZtSDHC1, ZtSDHC1_A84I or Zt-SDHC3), or (ii) carrying two C-subunit encoding genes ZtSDHC1 and ZtSDHC3 (Table 1).
(§2) Biomass production, mitochondrial extraction and purification were performed as described in [14]. Succinate: ubiquinone/DCPIP sensitivity tests were performed as described in [14] with minor modification. The different mitochondrial suspensions were adjusted to similar initial velocity (1 OD595nm hour^-1) and inhibitor concentrations ranged between 0.047nM and 50μM with uniform 4x dilution steps (11 concentrations + DMSO control). Calculated absorbance slopes (OD/min) were used for IC50 calculations using GraphPad Prism 6.07 software non-linear curve fitting against log inhibitor concentrations.

[2] = target: C_A84I-SQR (SDHC_A84I), IPO323_Flu21 mitochondria (Zymoseptoria tritici, UniProt F9X9V6+F9XH52+O42772, A84I); assay: Succinate-quinone (SQR) SDHI sensitivity assay on purified mitochondria, IPO323_Flu21; type: biochemical; conditions: for RF (resistance factor), IPO323_Flu21 (SDHC_A84I): IC50 ratio compared to IPO323 values; for IC50: mitochondria of UV mutant IPO323_Flu21, mean of three ± SD
Description: as §1, §2

[3] = target: SQR of 06STD024 (SDHC / altC) mitochondria (Zymoseptoria tritici, UniProt A0A1X7RQW2+F9X9V6+F9XH52+O42772); assay: Succinate-quinone (SQR) SDHI sensitivity assay on purified mitochondria, 06STD024; type: biochemical; conditions: for RF (resistance factor), 06STD024 (SDHC / altC): IC50 ratio compared to IPO323 values; for IC50: mitochondria of field isolate 06STD024, mean of three ± SD
Description: as §1
(§3) Biomass production, mitochondrial extraction and purification were performed as described in [14]. Succinate: ubiquinone/DCPIP sensitivity tests were performed as described in [14] with minor modification.

[4] = target: SQR (SDHC) of D024 SDHC3 KO mitochondria (Zymoseptoria tritici, UniProt F9X9V6+F9XH52+O42772); assay: Succinate-quinone (SQR) SDHI sensitivity assay on purified mitochondria, 06STD024 SDHC3 KO; type: biochemical; conditions: for RF (resistance factor), D024 SDHC3 KO (SDHC): IC50 ratio compared to IPO323 values; for IC50: mitochondria of 06STD024 ZtSDHC3 deletion mutant, mean of three ± SD
Description: as §1, §2

[5] = target: altC-SQR (altC) of D024 SDHC1 KO mitochondria (Zymoseptoria tritici, UniProt A0A1X7RQW2+F9X9V6+O42772); assay: Succinate-quinone (SQR) SDHI sensitivity assay on purified mitochondria, 06STD024 SDHC1 KO; type: biochemical; conditions: for RF (resistance factor), D024 SDHC1 KO (altC): IC50 ratio compared to IPO323 values; for IC50: mitochondria of 06STD024 ZtSDHC1 deletion mutant (pure altC-SQR), mean of three ± SD
Description: as §1, §3

[6] = tested on: SQR (SDHC / altC) of IPO323 pTet::SDHC3 transformant, induced; assay: Succinate-quinone (SQR) SDHI sensitivity assay on purified mitochondria, IPO323 pTet::SDHC3 induced; type: biochemical, Zymoseptoria tritici; conditions: for RF (resistance factor), pTet Induced (SDHC / altC): IC50 ratio compared to IPO323 values; for IC50: IPO323 pTet::SDHC3 transformant grown in the absence of doxycycline, mean of three ± SD
Description: as §1, §3

[7] = target: SQR (SDHC / altC) of IPO323 pTet::SDHC3 transformant, repressed (Zymoseptoria tritici, UniProt A0A1X7RQW2+F9X9V6+F9XH52+O42772); assay: Succinate-quinone (SQR) SDHI sensitivity assay on purified mitochondria, IPO323 pTet::SDHC3 repressed; type: biochemical; conditions: for RF (resistance factor), pTet Repressed (SDHC / altC): IC50 ratio compared to IPO323 values; for IC50: IPO323 pTet::SDHC3 transformant grown in presence of 30 mg.L^-1 doxycycline, mean of three ± SD
Description: as §1, §3

[8] = tested on: Zymoseptoria tritici field and genetically modified strains; assay: Liquid culture assay for fungicide sensitivity determination; type: cell-based; conditions: liquid culture sensitivity, read-out: EC50 (nM) Mean
Description: Sensitivity towards commercial fungicides was determined for a set of 99 SHA-SDHI-naïve Z. tritici field isolates sampled in Europe between 2006 and 2009. The EC50 of these isolates was determined in liquid growth assays and the data obtained compared for each possible pair of SDHI fungicides (cross-resistance (XR) plots, Fig 1). […] Comparative succinate-quinone reductase (SQR) enzyme inhibition tests were performed with mitochondria extracted from a panel of SHA-SDHIs tolerant and sensitive isolates.
In order to characterize in more depth the mechanisms driving sensitivity differences across the isolates, a subset of eight isolates carrying the ZtSDHC3 gene was analyzed for their sensitivity to SDHIs, alt-SDHC expression and splicing patterns. Liquid culture growth sensitivity tests were performed to determine EC50s for this set of isolates towards a wide range of commercial and research SDHIs (S5 Table).
Pre-culture of the inoculum and fungicide sensitivity tests were performed following previously described procedures. Different ranges of inhibitor concentrations were used for population monitoring and for the detailed phenotyping of a selected set of individual field isolates and genetically modified strains. For fungicide sensitivity monitoring of European field populations, final inhibitors concentrations were between 100 mg.L^-1 and 0.0001 mg.L^-1 with uniform 10x dilution steps (7 inhibitor concentrations + DMSO control). For refined sensitivity analysis of a smaller panel of isolates final inhibitor concentrations ranged between 0.5 mM and 0.47 nM with uniform 4x dilution factor steps (11 inhibitor concentrations+ DMSO control).

Sequence of altC-SQR (altC) of D024 SDHC1 KO mitochondria (A0A1X7RQW2 36-181): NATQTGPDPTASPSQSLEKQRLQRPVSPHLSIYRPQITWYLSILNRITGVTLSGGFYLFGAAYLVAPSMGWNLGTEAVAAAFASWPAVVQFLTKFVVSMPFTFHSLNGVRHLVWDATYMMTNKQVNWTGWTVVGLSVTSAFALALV
Sequence of altC-SQR (altC) of D024 SDHC1 KO mitochondria (O42772 20-297): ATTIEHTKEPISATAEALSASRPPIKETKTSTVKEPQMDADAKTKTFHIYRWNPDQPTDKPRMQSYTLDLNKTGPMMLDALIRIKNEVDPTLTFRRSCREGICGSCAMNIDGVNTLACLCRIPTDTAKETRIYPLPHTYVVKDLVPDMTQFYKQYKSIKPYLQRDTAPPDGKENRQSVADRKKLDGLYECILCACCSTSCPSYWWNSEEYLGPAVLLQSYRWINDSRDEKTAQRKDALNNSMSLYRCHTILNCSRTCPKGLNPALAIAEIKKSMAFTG
Sequence of altC-SQR (altC) of D024 SDHC1 KO mitochondria (F9X9V6 1-193): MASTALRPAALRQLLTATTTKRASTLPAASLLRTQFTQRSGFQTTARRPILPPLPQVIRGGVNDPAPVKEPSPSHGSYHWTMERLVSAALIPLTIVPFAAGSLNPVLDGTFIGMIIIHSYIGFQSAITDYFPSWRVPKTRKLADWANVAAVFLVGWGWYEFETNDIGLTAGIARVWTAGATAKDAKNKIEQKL
Sequence of altC-SQR (altC) of D024 SDHC1 KO mitochondria (F9WWR1 41-643 partner): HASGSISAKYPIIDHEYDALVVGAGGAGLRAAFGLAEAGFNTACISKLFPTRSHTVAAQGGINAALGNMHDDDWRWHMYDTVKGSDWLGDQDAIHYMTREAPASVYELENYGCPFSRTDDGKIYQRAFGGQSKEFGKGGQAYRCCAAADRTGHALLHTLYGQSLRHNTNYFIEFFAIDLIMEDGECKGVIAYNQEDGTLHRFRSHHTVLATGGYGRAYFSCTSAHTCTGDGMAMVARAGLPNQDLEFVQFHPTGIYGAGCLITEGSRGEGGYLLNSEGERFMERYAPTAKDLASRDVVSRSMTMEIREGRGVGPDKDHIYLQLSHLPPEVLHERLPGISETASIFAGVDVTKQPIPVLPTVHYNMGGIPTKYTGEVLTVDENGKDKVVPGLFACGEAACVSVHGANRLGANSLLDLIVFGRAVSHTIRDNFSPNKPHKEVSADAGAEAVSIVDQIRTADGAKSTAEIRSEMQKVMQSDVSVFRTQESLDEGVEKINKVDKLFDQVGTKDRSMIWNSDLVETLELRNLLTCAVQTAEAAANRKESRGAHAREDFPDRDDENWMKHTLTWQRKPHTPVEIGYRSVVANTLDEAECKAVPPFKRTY
Sequence of SQR of 06STD024 (SDHC / altC) mitochondria (A0A1X7RQW2 36-181): as the sequence (A0A1X7RQW2 36-181) above
Sequence of SQR of 06STD024 (SDHC / altC) mitochondria (O42772 19-297): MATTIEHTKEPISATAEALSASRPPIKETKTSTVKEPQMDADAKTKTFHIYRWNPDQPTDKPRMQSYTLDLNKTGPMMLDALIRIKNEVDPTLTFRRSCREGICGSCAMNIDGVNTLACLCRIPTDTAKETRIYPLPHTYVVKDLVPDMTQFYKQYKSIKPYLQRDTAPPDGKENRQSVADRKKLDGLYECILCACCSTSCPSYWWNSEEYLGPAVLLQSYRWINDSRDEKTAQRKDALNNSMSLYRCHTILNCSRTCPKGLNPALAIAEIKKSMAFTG
Sequence of SQR of 06STD024 (SDHC / altC) mitochondria (F9X9V6 1-193): as the sequence (F9X9V6 1-193) above
Sequence of SQR of 06STD024 (SDHC / altC) mitochondria (F9XH52 44-187): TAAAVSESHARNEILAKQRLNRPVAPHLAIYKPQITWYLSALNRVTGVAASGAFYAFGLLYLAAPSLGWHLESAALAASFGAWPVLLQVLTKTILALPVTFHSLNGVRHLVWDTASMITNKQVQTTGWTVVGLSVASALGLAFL
Sequence of SQR of 06STD024 (SDHC / altC) mitochondria (F9WWR1 29-643 partner): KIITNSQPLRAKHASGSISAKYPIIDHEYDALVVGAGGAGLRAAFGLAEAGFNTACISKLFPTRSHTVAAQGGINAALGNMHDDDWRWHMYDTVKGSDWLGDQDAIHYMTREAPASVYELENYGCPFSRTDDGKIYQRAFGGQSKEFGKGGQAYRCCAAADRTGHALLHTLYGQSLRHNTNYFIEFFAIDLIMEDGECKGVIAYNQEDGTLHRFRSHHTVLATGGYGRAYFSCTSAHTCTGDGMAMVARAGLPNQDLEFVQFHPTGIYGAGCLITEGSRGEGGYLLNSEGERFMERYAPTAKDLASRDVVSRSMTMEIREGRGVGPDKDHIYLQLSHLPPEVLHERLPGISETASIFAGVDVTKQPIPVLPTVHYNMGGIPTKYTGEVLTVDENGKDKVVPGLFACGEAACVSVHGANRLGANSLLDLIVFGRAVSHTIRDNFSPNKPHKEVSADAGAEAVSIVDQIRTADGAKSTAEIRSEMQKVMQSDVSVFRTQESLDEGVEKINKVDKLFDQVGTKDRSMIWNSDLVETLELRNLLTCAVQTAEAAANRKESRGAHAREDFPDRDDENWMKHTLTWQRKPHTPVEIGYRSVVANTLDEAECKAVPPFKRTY
Sequence of C_A84I-SQR (SDHC_A84I), IPO323_Flu21 mitochondria (F9XH52 44-187, stated change not applied): as the sequence (F9XH52 44-187) above
Sequence of C_A84I-SQR (SDHC_A84I), IPO323_Flu21 mitochondria (O42772 19-297, stated change not applied): as the sequence (O42772 19-297) above
Sequence of C_A84I-SQR (SDHC_A84I), IPO323_Flu21 mitochondria (F9X9V6 whole entry, stated change not applied): as the sequence (F9X9V6 1-193) above
Sequence of C_A84I-SQR (SDHC_A84I), IPO323_Flu21 mitochondria (F9WWR1 29-643 partner): as the sequence (F9WWR1 29-643 partner) above

Cn1cc(C(=O)Nc2ccc(F)cc2-c2ccc(Cl)c(Cl)c2)c(C(F)F)n1 [Bixafen]
IC50 [1]: 1.4 ± 0.1 nM | RF (resistance factor), IPO323_Flu21 (SDHC_A84I) [2]: 2.3 | IC50 [2]: 3.2 ± 0.5 nM | RF (resistance factor), 06STD024 (SDHC / altC) [3]: 1.3 | IC50 [3]: 1.8 ± 0.7 nM | RF (resistance factor), D024 SDHC3 KO (SDHC) [4]: 1.0 | IC50 [4]: 1.3 ± 0.2 nM | RF (resistance factor), D024 SDHC1 KO (altC) [5]: 1.5 | IC50 [5]: 2.1 ± 0.6 nM | RF (resistance factor), pTet Induced (SDHC / altC) [6]: 1.3 | IC50 [6]: 1.8 ± 0.4 nM | RF (resistance factor), pTet Repressed (SDHC / altC) [7]: 1.1 | IC50 [7]: 1.5 ± 0.6 nM | EC50 ([8]; strain 06STD024): 83.8 nM | EC50 ([8]; strain 07STGB009): 102 nM | EC50 ([8]; strain 09STD041): 219 nM | EC50 ([8]; strain 09STD053): 102 nM | EC50 ([8]; strain 09STF011): 70.1 nM | EC50 ([8]; strain 09STF037): 111 nM | EC50 ([8]; strain 09STF112): 171 nM | EC50 ([8]; strain 09STIR20.3): 204 nM | EC50 ([8]; strain Flu21 (SDHC1_A84I)): 959 nM | EC50 ([8]; strain IPO323): 106 nM | EC50 ([8]; strain IPO94269): 109 nM | EC50 ([8]; strain KO_SDHC1_T1): 710 nM | EC50 ([8]; strain KO_SDHC1_T3): 447 nM | EC50 ([8]; strain KO_SDHC3_T4): 204 nM | EC50 ([8]; strain KO_SDHC3_T13): 180 nM | EC50 ([8]; strain pTet::SDHC3_I78A_T1): 94.3 nM | EC50 ([8]; strain pTet::SDHC3_I78A_T5): 174 nM | EC50 ([8]; strain pTet::SDHC3_I78A_T15): 104 nM | EC50 ([8]; strain pTet::SDHC3_I78A_T35): 27.7 nM | EC50 ([8]; strain pTet::SDHC3_T1): 141 nM | EC50 ([8]; strain pTet::SDHC3_T2): 185 nM | EC50 ([8]; strain pTet::SDHC3_T3): 120 nM | EC50 ([8]; strain pTet::SDHC3_T7): 192 nM

Cn1cc(C(=O)Nc2ccccc2-c2cc(F)c(F)c(F)c2)c(C(F)F)n1 [Fluxapyroxad]
IC50 [1]: 4.3 ± 1.1 nM | RF (resistance factor), IPO323_Flu21 (SDHC_A84I) [2]: 1.2 | IC50 [2]: 5.1 ± 0.7 nM | RF (resistance factor), 06STD024 (SDHC / altC) [3]: 0.8 | IC50 [3]: 3.5 ± 0.3 nM | RF (resistance factor), D024 SDHC3 KO (SDHC) [4]: 0.8 | IC50 [4]: 3.3 ± 0.8 nM | RF (resistance factor), D024 SDHC1 KO (altC) [5]: 0.7 | IC50 [5]: 3.1 ± 0.4 nM | RF (resistance factor), pTet Induced (SDHC / altC) [6]: 0.8 | IC50 [6]: 3.3 ± 0.6 nM | RF (resistance factor), pTet Repressed (SDHC / altC) [7]: 1.1 | IC50 [7]: 4.5 ± 1 nM | EC50 ([8]; strain 06STD024): 83.2 nM | EC50 ([8]; strain 07STGB009): 72.2 nM | EC50 ([8]; strain 09STD041): 142 nM | EC50 ([8]; strain 09STD053): 132 nM | EC50 ([8]; strain 09STF011): 119 nM | EC50 ([8]; strain 09STF037): 110 nM | EC50 ([8]; strain 09STF112): 152 nM | EC50 ([8]; strain 09STIR20.3): 295 nM | EC50 ([8]; strain Flu21 (SDHC1_A84I)): 818 nM | EC50 ([8]; strain IPO323): 102 nM | EC50 ([8]; strain IPO94269): 121 nM | EC50 ([8]; strain KO_SDHC1_T1): 438 nM | EC50 ([8]; strain KO_SDHC1_T3): 361 nM | EC50 ([8]; strain KO_SDHC3_T4): 216 nM | EC50 ([8]; strain KO_SDHC3_T13): 144 nM | EC50 ([8]; strain pTet::SDHC3_I78A_T1): 115 nM | EC50 ([8]; strain pTet::SDHC3_I78A_T5): 265 nM | EC50 ([8]; strain pTet::SDHC3_I78A_T15): 145 nM | EC50 ([8]; strain pTet::SDHC3_I78A_T35): 79.5 nM | EC50 ([8]; strain pTet::SDHC3_T1): 148 nM | EC50 ([8]; strain pTet::SDHC3_T2): 129 nM | EC50 ([8]; strain pTet::SDHC3_T3): 102 nM | EC50 ([8]; strain pTet::SDHC3_T7): 197 nM
